Assay results published in publication PMC9557727, “How an assembly factor enhances covalent FAD attachment to the flavoprotein subunit of complex II” (The Journal of Biological Chemistry, 2022).
Where two headings read alike, the source gives them in different places.

Assays:
E. coli apo-FrdA = target: T1, E. coli apo-FrdA (Escherichia coli, UniProt P00363); assay type: biochemical; settings: ligand 20 mM, FAD 100 μM, 1 h, 30 °C; for Covalent FAD attachment to apo-FrdA, SdhE-dependent: +SdhE 10.4 μM
T1 construct: His6 (N); made in house; host or cells: E. coli RP437 ΔsdhE (RP-E), plasmid pCA24N-FrdA
Experimental: (§1) Unless specified, the reaction was performed in 50 mM potassium phosphate (pH 7.0) at 30 °C for 1 h. […] The reaction was started after addition of the appropriate flavinylation-promoting ligand at the as-indicated concentration. At different time points, the samples were mixed with 4× SDS loading buffer (Bio-Rad), and the sample loaded onto an SDS-PAGE gel (Bio-Rad; Any KdA). Following protein separation, the gel was incubated in 10% acetic acid/20% ethanol for 5 min. Upon illumination with UV light, complex II flavinylated flavoprotein is visible because of the fluorescence of the covalently bound flavin. The in-gel fluorescence of covalently attached FAD was detected using a Safe Imager 2.0 blue-light transilluminator (Thermo Fisher Scientific). The gel was then rinsed with water for 5 min and stained with Instant Blue stain (Expedeon). ImageJ (National Institutes of Health) software was used for quantification of covalently bound FAD levels and relative protein ratios. The isolated holo-SdhA/FrdA or SDHA–SDHAF2 complex were used as 100% covalent flavinylated controls. […] To do that, upon addition of fumarate, the sample (200 μl) was quickly mixed and filled into an automatic pipette. Each sample (15 μl) was then injected into a vial containing 5 μl of 4× SDS loading gel. This allowed collection of time points that are at 10 to 15 s intervals.

E. coli apo-SdhA = target: T2, E. coli apo-SdhA (Escherichia coli, UniProt P0AC41); test: biochemical; assay type: biochemical; settings: for Covalent FAD attachment to apo-SdhA, SdhE-dependent: +SdhE 10.4 μM; for Covalent FAD attachment to apo-SdhA, SdhE-dependent / Covalent FAD attachment to apo-SdhA, SdhE-independent: ligand 20 mM
T2 construct: His6 (N); made in house; host or cells: E. coli RP437 ΔsdhE (RP-E), plasmid pCA24N-SdhA
Experimental: as §1

apo-SdhA [1] = target: T3, apo-SdhA (Escherichia coli, UniProt P0AC41); test: Determination of Kd for FAD by ultrafiltration; assay type: binding; parameters: His6 (N); made in house; host or cells: E. coli RP437 ΔsdhE (RP-E), plasmid pCA24N-SdhA; settings: 50 mM Hepes pH 7.0, 21 °C
Experimental: The method is adapted from Mortarino et al. ([36]). […] The exact volume and the concentration of free flavin (ε^450 = 11.3 mM^−1 cm^−1) in the filtrate was measured, and it is assumed the free flavin (FAD^free) concentrations are the same in the filtrate and concentrated fractions. The total FAD in the concentrated fraction was calculated, and the excess over FAD^free corresponded to SdhA–noncovalent FAD. The Kd = [FAD^free][apo-SdhA]/[SdhA–FAD] was calculated from the amount of apo-SdhA determined by total protein concentration. The data are expressed as mean ± SD of four to five independent measurements.
Target sequence in this assay (P0AC41 whole entry): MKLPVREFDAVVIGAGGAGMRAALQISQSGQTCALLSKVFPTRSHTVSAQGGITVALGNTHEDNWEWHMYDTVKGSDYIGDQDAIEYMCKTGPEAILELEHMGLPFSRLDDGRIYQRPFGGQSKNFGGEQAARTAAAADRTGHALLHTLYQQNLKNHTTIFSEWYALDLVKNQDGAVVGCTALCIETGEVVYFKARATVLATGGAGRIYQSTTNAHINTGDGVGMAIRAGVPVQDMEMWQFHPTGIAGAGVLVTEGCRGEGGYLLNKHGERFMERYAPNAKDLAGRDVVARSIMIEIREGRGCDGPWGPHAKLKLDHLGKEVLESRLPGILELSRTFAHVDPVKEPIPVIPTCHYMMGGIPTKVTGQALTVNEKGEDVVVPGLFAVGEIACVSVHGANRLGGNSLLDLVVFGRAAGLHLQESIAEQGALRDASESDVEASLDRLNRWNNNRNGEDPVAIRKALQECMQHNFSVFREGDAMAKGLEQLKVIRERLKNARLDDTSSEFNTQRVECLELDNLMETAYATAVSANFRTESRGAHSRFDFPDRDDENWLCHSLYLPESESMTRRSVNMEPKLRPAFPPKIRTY

[2] = parameters: method as in PMID 4752947, PMID 6263261, PMID 15884941; settings: free FAD in solution; cited from earlier work
human apo-SDHA [3] = target: T4, human apo-SDHA (Homo sapiens, UniProt P31040); test: In vitro covalent flavinylation of human apo-SDHA; assay type: biochemical
T4 construct: His6 (N); made in house; host or cells: E. coli BL21(DE3), plasmid pQE-hSDHA
Experimental: as §1

apo-SdhA [4] = target: T3, apo-SdhA; assay type: biochemical; parameters: His6 (N); made in house; host or cells: apo-SdhA: E. coli RP437 ΔsdhE (pCA24N-SdhA); settings: 30 min at 37 °C; FAD 100 μM, SdhE 10.4 μM
Target sequence in this assay (P64559 whole entry): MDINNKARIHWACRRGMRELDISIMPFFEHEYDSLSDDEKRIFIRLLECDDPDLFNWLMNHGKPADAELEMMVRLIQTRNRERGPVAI
Target sequence in this assay (P0AC41 whole entry): as the sequence (P0AC41 whole entry) above
Experimental: Apo-SdhA (2.8 μM) or apo-SDHA (4.3 μM) in 40 mM Hepes (pH 7.5) was incubated at 37 °C as follows: (1) no addition; (2) FAD (100 μM); (3) the assembly factors SdhE (10.4 μM) or SDHAF2 (8.4 μM); and (4) FAD (100 μM) plus appropriate assembly factors at the aforementioned concentrations. The incubation time was 15 min for SDHA and 30 min for SdhA. Corresponding control samples (with no additions) were held at 4 °C for the same time. After the incubation, the samples were transferred to 4 °C, and to all samples, including the control, either FAD and/or the assembly factor was added so that each sample contains 100 μM FAD and the appropriate assembly factor. Then 0.5 mM fumarate is added to each sample to initiate the flavinylation reaction. After 30 min incubation at 30 °C, 4× SDS sample buffer was added, and then in-gel fluorescence was determined as described previously.

apo-SdhA [5] = target: T3, apo-SdhA; test: Reduction/oxidation of FAD during SdhE-dependent flavinylation (absorbance at 452 nm); assay type: biochemical; parameters: His6 (N); made in house; host or cells: apo-SdhA: E. coli RP437 ΔsdhE (pCA24N-SdhA); settings: 10 mM fumarate; 25 μM apo-SdhA, 20 μM FAD, 40 μM SdhE, 30 °C
Experimental: Spectral measurements and kinetics were performed by using an Agilent […] UV–visible spectrophotometer. For kinetic measurements, whole spectra (1 nm increments) were collected during the reaction at 1 to 5 s intervals.
Target sequence in this assay (P64559 whole entry): as the sequence (P64559 whole entry) above
Target sequence in this assay (P0AC41 whole entry): as the sequence (P0AC41 whole entry) above

holo-SdhA–SdhE = target: holo-SdhA–SdhE; parameters: method as in PMID 29348404; settings: read-out: Kd for fumarate, holo-SdhA–SdhE complex; holo-SdhA with covalent FAD; cited from earlier work
human apo-SDHA [6] = target: T4, human apo-SDHA; parameters: method as in PMID 32887801; settings: cited from earlier work
[7] = test system: Sulfolobus tokodaii succinate dehydrogenase; settings: no sdhE gene; cited from earlier work
apo-SdhA [8] = target: T3, apo-SdhA; test: Hydrogen peroxide formation upon covalent flavinylation of SdhA (Amplex UltraRed); assay type: biochemical; parameters: His6 (N); made in house; host or cells: apo-SdhA: E. coli RP437 ΔsdhE (pCA24N-SdhA); settings: apo-SdhA 2.8 μM, FAD 2.5 μM, SdhE 4.8 μM
Experimental: Upon covalent attachment, the flavin in SdhA became reduced and can be reoxidized by oxygen with formation of hydrogen peroxide. Amplex UltraRed was used to monitor the hydrogen peroxide formed. […] The reaction was started by addition of either 10 μM or 10 mM fumarate and hydrogen peroxide monitored by following the oxidation of Amplex UltraRed (567 nm) using an Agilent 8453 spectrophotometer.
Target sequence in this assay (P64559 whole entry): as the sequence (P64559 whole entry) above
Target sequence in this assay (P0AC41 whole entry): as the sequence (P0AC41 whole entry) above

[9] = test system: Thermus thermophilus succinate dehydrogenase; settings: no sdhE gene; cited from earlier work
[10] = +SdhE, 50 mM potassium phosphate pH 7.0, 0.1 mM FAD, 30 °C
[11] = read-out: k, ligand concentration for half-maximal flavinylation after 1 h incubation, +SdhE, 50 mM potassium phosphate pH 7.0, 0.1 mM FAD, 30 °C, 1 h

T1 sequence (P00363 whole entry): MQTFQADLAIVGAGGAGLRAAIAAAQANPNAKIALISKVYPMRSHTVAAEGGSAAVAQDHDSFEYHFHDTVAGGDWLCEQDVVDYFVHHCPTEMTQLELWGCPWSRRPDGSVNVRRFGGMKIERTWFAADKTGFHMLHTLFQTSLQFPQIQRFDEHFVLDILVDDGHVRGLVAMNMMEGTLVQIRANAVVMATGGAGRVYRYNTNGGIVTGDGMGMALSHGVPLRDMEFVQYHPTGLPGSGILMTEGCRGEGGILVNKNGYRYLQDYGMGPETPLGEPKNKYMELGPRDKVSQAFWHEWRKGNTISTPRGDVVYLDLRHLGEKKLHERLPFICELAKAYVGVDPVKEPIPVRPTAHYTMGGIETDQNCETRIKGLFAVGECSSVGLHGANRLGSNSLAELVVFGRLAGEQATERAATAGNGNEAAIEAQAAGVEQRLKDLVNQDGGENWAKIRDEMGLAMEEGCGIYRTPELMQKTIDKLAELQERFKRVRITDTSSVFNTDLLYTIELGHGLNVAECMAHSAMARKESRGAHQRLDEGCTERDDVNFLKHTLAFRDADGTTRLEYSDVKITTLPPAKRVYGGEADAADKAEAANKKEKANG
T4 sequence (P31040 43-664): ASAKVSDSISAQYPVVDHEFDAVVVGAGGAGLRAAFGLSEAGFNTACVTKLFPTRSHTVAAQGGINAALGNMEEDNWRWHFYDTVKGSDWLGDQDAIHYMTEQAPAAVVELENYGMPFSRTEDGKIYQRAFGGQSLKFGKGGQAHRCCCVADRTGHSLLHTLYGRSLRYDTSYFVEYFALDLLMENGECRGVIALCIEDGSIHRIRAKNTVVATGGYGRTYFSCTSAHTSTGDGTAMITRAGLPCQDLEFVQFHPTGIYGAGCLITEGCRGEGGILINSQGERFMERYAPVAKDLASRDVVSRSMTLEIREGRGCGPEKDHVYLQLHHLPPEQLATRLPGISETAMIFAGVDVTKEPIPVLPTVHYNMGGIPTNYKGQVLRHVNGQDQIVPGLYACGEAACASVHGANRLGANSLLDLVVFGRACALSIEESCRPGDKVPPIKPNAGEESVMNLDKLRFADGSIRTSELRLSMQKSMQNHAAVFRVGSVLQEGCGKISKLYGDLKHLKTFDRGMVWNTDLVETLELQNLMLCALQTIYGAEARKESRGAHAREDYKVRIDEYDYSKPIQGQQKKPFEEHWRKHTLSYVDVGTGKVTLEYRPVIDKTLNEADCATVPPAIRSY
T2 sequence (P0AC41 whole entry): as the sequence (P0AC41 whole entry) above

SMILES: N[C@@H](CC(=O)O)C(=O)O [Aspartate, L-aspartate]
- Covalent FAD attachment to apo-FrdA, SdhE-dependent (E. coli apo-FrdA): high levels
- Covalent FAD attachment to apo-FrdA, SdhE-independent (E. coli apo-FrdA): partially effective
- EC50 (E. coli apo-SdhA): 26 µM
- Covalent FAD attachment to apo-SdhA, SdhE-dependent (E. coli apo-SdhA; FAD 100 μM, 1 h, 30 °C): high levels
- K, apparent first-order rate constant of covalent flavinylation, +SdhE (E. coli apo-SdhA; [10]): 0.1 min⁻¹

SMILES: Cc1cc2nc3c(=O)[nH]c(=O)nc-3n(C[C@H](O)[C@H](O)[C@H](O)COP(=O)(O)OP(=O)(O)OC[C@H]3O[C@@H](n4cnc5c(N)ncnc54)[C@H](O)[C@@H]3O)c2cc1C [FAD]
- Kd (apo-SdhA [1]; read-out: Estimated apparent Kd for FAD, apo-SdhA in the presence of SdhE, +SdhE 12.5 μM): 1.3 ± 0.5 µM
- Kd (apo-SdhA [1]; without SdhE, read-out: Estimated apparent Kd for FAD, apo-SdhA alone): 14.4 ± 1.7 µM
- Redox potential Em of free FAD [2]: −219 mV
- Increase in FAD concentration required for 50% flavinylation without SDHAF2 versus SDHAF2-dependent reaction (human apo-SDHA [3]; fumarate-only SDHA flavinylation): fivefold
- Protection of apo-SdhA against thermal inactivation of the flavinylation reaction (apo-SdhA [4]): does not afford enhanced stability and protection
- FAD requirement for maximum flavinylation of SdhA (E. coli apo-SdhA; +SdhE, fumarate 10 mM, apo-SdhA 6 μM, 1 h, 30 °C): stoichiometric ratios of FAD to apo-SdhA
- EC50 (E. coli apo-SdhA; −SdhE, fumarate 10 mM, apo-SdhA 6 μM, 1 h, 30 °C, read-out: FAD concentration for half-maximal flavinylation of SdhA): ~20 µM

SMILES: O=C(O)/C=C/C(=O)O [Fumarate]
- k app, fast phase (reduction of FAD) (apo-SdhA [5]): ~7 min⁻¹
- k app, second slower phase (reoxidation of reduced flavin) (apo-SdhA [5]): ~0.1 min⁻¹
- Kd (holo-SdhA–SdhE): 64 µM
- EC50 (human apo-SDHA [6]; +SDHAF2, read-out: Concentration of fumarate needed to achieve 50% flavinylation, with SDHAF2): 16 µM
- k, rate of covalent flavinylation of SDHA, + SDHAF2 (human apo-SDHA [6]): 0.15 min⁻¹
- Initiation of flavinylation in Sulfolobus tokodaii [7]: proficient flavinylation
- Hydrogen peroxide formation on induction of flavinylation (apo-SdhA [8]; 10 μM fumarate): significant increase in hydrogen peroxide
- Hydrogen peroxide formation on induction of flavinylation (apo-SdhA [8]; 10 mM fumarate): very low release of hydrogen peroxide
- Saturation level of SDHAF2-independent flavinylation relative to SDHAF2-dependent flavinylation (human apo-SDHA [3]; −SDHAF2, 60 mM fumarate, 100 μM FAD, time course): ~70%
- k, rate of covalent flavinylation of SDHA, − SDHAF2 (human apo-SDHA [3]; −SDHAF2, 60 mM fumarate, 100 μM FAD, assuming 70% of protein capable of flavinylation): 0.032 min⁻¹
- EC50 (human apo-SDHA [3]; −SDHAF2, fumarate concentration for 50% flavinylation, read-out: K (fum), − SDHAF2): 12000 µM
- SDHAF2-independent flavinylation of SDHA relative to flavinylation in the presence of SDHAF2 (human apo-SDHA [3]; −SDHAF2, ligand 20 mM, FAD 100 μM, 1 h, 37 °C): ~40%
- Covalent FAD attachment to apo-FrdA, SdhE-dependent (E. coli apo-FrdA): high levels
- Covalent FAD attachment to apo-FrdA, SdhE-independent (E. coli apo-FrdA): complete
- Covalent FAD attachment to apo-SdhA, SdhE-dependent (E. coli apo-SdhA; FAD 100 μM, 1 h, 30 °C): high levels
- K, apparent first-order rate constant of covalent flavinylation, +SdhE (E. coli apo-SdhA; [10]): 1.7 min⁻¹
- Fumarate concentration giving complete flavinylation of apo-SdhA (E. coli apo-SdhA; +SdhE, apo-SdhA 6 μM, FAD 100 μM, 1 h, 30 °C): ~1 µM
- EC50 (E. coli apo-SdhA; [11]): < 1 µM
- k, apparent first-order rate constant of covalent flavinylation, −SdhE (E. coli apo-SdhA; −SdhE, 50 mM potassium phosphate pH 7.0, 0.1 mM FAD, 30 °C): 0.1 min⁻¹
- k, apparent first-order rate constant of covalent flavinylation, −SdhE (E. coli apo-SdhA; −SdhE, 50 mM potassium phosphate pH 7.0, 0.1 mM FAD, 30 °C, listed as fumarate): 0.095 min⁻¹
- Covalent FAD attachment to apo-SdhA, SdhE-independent (E. coli apo-SdhA; −SdhE, FAD 100 μM, 1 h, 30 °C): complete
- Initiation of flavinylation in Thermus thermophilus [9]: quite proficient

SMILES: O=C(O)CC(O)C(=O)O (centres unmarked) [Malate, malate]
- Covalent FAD attachment to apo-FrdA, SdhE-dependent (E. coli apo-FrdA): high levels
- EC50 (E. coli apo-SdhA): 10 µM
- Covalent FAD attachment to apo-SdhA, SdhE-dependent (E. coli apo-SdhA; FAD 100 μM, 1 h, 30 °C): high levels
- K, apparent first-order rate constant of covalent flavinylation, +SdhE (E. coli apo-SdhA; [10]): 0.3 min⁻¹
- Covalent FAD attachment to apo-SdhA, SdhE-independent (E. coli apo-SdhA; −SdhE, FAD 100 μM, 1 h, 30 °C): partially effective
- Initiation of flavinylation in Thermus thermophilus [9]: quite proficient

SMILES: CC(=O)C(=O)O [Pyruvate]
- Covalent FAD attachment to apo-FrdA, SdhE-dependent (E. coli apo-FrdA): able to induce
- Covalent FAD attachment to apo-SdhA, SdhE-dependent (E. coli apo-SdhA; FAD 100 μM, 1 h, 30 °C): able to induce

SMILES: O=C(O)CCC(=O)O [Succinate, succinate]
- Initiation of flavinylation in Sulfolobus tokodaii [7]: proficient flavinylation
- Covalent FAD attachment to apo-FrdA, SdhE-dependent (E. coli apo-FrdA): high levels
- Covalent FAD attachment to apo-SdhA, SdhE-dependent (E. coli apo-SdhA; FAD 100 μM, 1 h, 30 °C): high levels
- K, apparent first-order rate constant of covalent flavinylation, +SdhE (E. coli apo-SdhA; [10]): 0.7 min⁻¹
- EC50 (E. coli apo-SdhA; [11]): 1 µM
- Covalent FAD attachment to apo-SdhA, SdhE-independent (E. coli apo-SdhA; −SdhE, FAD 100 μM, 1 h, 30 °C): partially effective
- Initiation of flavinylation in Thermus thermophilus [9]: quite proficient

SMILES: CC(=O)O [acetate]
- Covalent FAD attachment to apo-FrdA, SdhE-dependent (E. coli apo-FrdA): ~30%
- Covalent FAD attachment to apo-SdhA, SdhE-dependent (E. coli apo-SdhA; FAD 100 μM, 1 h, 30 °C): ~30%

SMILES: O=C(O)CC(O)(CC(=O)O)C(=O)O [citrate]
- Covalent FAD attachment to apo-FrdA, SdhE-dependent (E. coli apo-FrdA): able to induce
- Covalent FAD attachment to apo-SdhA, SdhE-dependent (E. coli apo-SdhA; FAD 100 μM, 1 h, 30 °C): able to induce

SMILES: O=C(O)CC(=O)O [malonate]
- Covalent FAD attachment to apo-FrdA, SdhE-dependent (E. coli apo-FrdA): ~30%
- Covalent FAD attachment to apo-SdhA, SdhE-dependent (E. coli apo-SdhA; FAD 100 μM, 1 h, 30 °C): ~30%

SMILES: O=C(O)CC(=O)C(=O)O [oxaloacetate]
- Covalent FAD attachment to apo-FrdA, SdhE-dependent (E. coli apo-FrdA): high levels
- Covalent FAD attachment to apo-FrdA, SdhE-independent (E. coli apo-FrdA): partially effective
- Covalent FAD attachment to apo-SdhA, SdhE-dependent (E. coli apo-SdhA; FAD 100 μM, 1 h, 30 °C): high levels
- Initiation of flavinylation in Thermus thermophilus [9]: quite proficient
